Among the data in US10669272B2, “Substituted naphthyridinone compounds useful as T cell activators” (BRISTOL-MYERS SQUIBB COMPANY, priority 2018, dated 2020) are IC50 and EC50 values, retold here.

Read-outs that look alike come from different tables or passages of the source.

One assay concerns the target T1, human DGKζ (Homo sapiens, UniProt Q13574).
T1 construct: TVMV protease cleavage site (C); Hexa-His (C); made in house; host or cells: Sf9 insect cells (baculovirus, Bac-to-Bac)
Description: DGKζ LIPGLO assay (extruded liposome substrate), in vitro DGK inhibition. Type of assay: biochemical. As to conditions: liposome (LIPGLO) assay; read-out: DGKz LIPGLO IC50.

Assay [1] has as its system OT-1 CD8+ T cells with SIINFEKL-loaded MC38 tumor cells. The experiment in a line: Murine cytotoxic T lymphocyte assay (IFN-γ, OT-1 CTL with MC38 tumor cells). Type of assay: cell-based, mouse. As to conditions: read-out: msCTL INFg IC50. The gist of the method: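 IFN-γ was quantified by AlphaLISA in supernatants after 24 h co-culture at 37° C. Effectors were OT-1 CD8+ CTLs (5-day peptide/mIL2 expansion), exposed 1 h to DGK inhibitors before mixing 1:10 with MC38 tumor cells loaded 3 h with 1 μg/mL SIINFEKL peptide.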

The test system of a further assay is Human venous whole blood. The experiment in a line: Human whole blood IFN-γ assay.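 Also: blood from healthy donors exposed to compound for 1 h before stimulation with anti-CD3 and anti-CD28 at 1 µg/mL each, IFN-γ quantified in supernatant by AlphaLISA.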 Type of assay: cell-based. The conditions noted are these: normalized to 3 μM reference compound with anti-CD3 plus anti-CD28 as 100% activation.
The next assay concerns the target T2, human DGKα (Homo sapiens, UniProt P23743).
T2 construct: TVMV protease cleavage site (C); Hexa-His (C); made in house; host or cells: Sf9 insect cells (baculovirus, Bac-to-Bac)
Description: DGKα LIPGLO assay (extruded liposome substrate), in vitro DGK inhibition. Type of assay: biochemical. The conditions noted are these: liposome (LIPGLO) assay; read-out: DGKa LIPGLO IC50.

The test system of another assay is naïve human CD8 T cells. Description: Human CD8 T cells IFN-γ assay.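 Also: Naïve human CD8 T cells stimulated with plate-bound anti-CD3 and soluble anti-CD28, IFN-γ in supernatant quantified by AlphaLISA and converted to pg/mL.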 Type of assay: cell-based. As to conditions: normalized to 3 μM reference compound with anti-CD3 plus anti-CD28 as 100% activation, read-out: HuCD8 INFG Normalized EC50.
[2] abbreviates: Homo sapiens, 24 h, human whole blood, read-out: INFg Whole Blood Normalized Agonist EC50.
[3] abbreviates: human whole blood, read-out: INFg Whole Blood Normalized Agonist EC50.
Setting [4] is: Homo sapiens, 24 h, read-out: INFg Whole Blood Normalized Agonist EC50, human whole blood.

T1 sequence (Q13574 with tags, fused parts or gaps isoform Q13574-4): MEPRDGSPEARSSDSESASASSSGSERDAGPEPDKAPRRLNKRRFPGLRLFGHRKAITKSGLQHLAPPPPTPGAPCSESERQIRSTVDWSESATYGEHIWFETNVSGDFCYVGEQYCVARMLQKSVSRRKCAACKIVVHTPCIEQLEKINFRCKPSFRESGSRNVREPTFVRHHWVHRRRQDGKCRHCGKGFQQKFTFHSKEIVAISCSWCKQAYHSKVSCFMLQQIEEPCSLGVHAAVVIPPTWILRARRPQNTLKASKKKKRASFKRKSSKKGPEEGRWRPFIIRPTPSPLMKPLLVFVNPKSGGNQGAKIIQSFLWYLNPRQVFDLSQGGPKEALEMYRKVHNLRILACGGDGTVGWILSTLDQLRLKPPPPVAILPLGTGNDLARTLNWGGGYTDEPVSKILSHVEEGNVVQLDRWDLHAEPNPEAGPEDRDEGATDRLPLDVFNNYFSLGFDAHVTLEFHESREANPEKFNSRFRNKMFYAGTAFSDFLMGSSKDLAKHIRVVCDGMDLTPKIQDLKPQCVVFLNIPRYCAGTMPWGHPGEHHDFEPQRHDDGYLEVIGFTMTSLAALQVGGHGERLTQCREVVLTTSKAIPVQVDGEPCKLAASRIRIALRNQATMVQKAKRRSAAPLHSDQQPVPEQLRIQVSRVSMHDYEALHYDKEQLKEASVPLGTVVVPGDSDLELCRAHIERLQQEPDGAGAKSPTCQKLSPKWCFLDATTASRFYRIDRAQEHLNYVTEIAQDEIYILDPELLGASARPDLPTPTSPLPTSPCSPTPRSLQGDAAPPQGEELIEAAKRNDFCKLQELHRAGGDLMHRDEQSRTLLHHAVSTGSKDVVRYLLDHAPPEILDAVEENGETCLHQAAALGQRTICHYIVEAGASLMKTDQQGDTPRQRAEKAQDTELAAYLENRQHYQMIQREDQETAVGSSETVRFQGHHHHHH
T2 sequence (P23743 with tags, fused parts or gaps): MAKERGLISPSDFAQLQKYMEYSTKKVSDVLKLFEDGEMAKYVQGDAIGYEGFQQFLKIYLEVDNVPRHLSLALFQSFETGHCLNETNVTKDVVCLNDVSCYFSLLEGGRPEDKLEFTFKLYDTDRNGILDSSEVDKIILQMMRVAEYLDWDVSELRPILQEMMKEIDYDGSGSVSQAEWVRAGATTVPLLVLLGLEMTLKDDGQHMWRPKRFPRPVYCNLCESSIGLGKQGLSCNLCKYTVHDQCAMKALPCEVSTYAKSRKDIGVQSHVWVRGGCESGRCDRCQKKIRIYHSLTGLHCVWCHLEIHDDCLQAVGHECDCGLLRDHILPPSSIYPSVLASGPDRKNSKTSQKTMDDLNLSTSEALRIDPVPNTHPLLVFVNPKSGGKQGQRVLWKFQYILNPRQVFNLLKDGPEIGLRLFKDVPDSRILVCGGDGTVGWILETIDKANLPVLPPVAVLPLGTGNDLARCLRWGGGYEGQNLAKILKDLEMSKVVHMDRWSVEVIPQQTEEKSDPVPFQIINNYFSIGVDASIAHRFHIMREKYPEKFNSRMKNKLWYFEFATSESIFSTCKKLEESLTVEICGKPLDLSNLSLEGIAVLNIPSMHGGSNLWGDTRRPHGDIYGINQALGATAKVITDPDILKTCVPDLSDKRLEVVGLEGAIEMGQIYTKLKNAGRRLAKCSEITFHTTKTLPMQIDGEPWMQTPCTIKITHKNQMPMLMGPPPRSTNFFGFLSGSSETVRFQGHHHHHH
Description for Human venous whole blood: Human Whole Blood IFN-γ Assay
Human venous whole blood (22.5 μL per well), obtained from healthy donors, was pre-treated with compounds for one hour at 37° C. in a humidified 95% air/5% CO2 incubator. The blood was stimulated with 2.5 μL anti-human CD3 and anti-CD28 mAb at a final concentration of 1 μg/mL each for 24 hours at 37° C. IFN-γ in the supernatants was measured using AlphLISA kit (Cat # AL217).

Consider `C[C@@H]1CN(c2cc(=O)n(C)c3ccc(C#N)nc23)CCN1C(c1ccc(F)cc1)c1ccc(F)cc1` [Example 28, (R)-8-(4-(bis(4-fluorophenyl)methyl)-3-methylpiperazin-1-yl)-5-methyl-6-oxo-5,6-dihydro-1,5-naphthyridine-2-carbonitrile], for which the half-inhibitory concentration (IC50) – broadly, the concentration that gives 50% inhibition – on human DGKζ was 2.1 µM; in assay [1] (Mus musculus, MC-38), 0.57 µM; on human DGKα, 4.6 µM. The EC50 – broadly, the concentration giving half of the maximal effect – with Human venous whole blood (setting [2]) was determined as 5.3 µM; in the assay on naïve human CD8 T cells (Homo sapiens, T-cell, 20 h), 0.038 µM.
The matching figures for `C[C@@H]1CN(c2cc(=O)n(C)c3ccc(C#N)nc23)CCN1C(c1ccc(Cl)cc1)c1ccc(Cl)cc1` [Example 104, (R)-8-(4-(bis(4-chlorophenyl)methyl)-3-methylpiperazin-1-yl)-5-methyl-6-oxo-5,6-dihydro-1,5-naphthyridine-2-carbonitrile, dimethylformamide]: 4.4 µM, 0.56 µM, 4.4 µM, 6.5 µM and 0.18 µM.
Regarding `COc1ncccc1C(c1ccc(F)cc1)N1C[C@H](C)N(c2cc(=O)n(C)c3ccc(C#N)nc23)C[C@H]1C` (single isomer, unassigned) [Example 210], the IC50 is 0.26 µM at human DGKζ; 0.12 µM in assay [1] (Mus musculus, MC-38); 14 µM on human DGKα. In addition, the EC50 worked out at 1.1 µM in the assay on Human venous whole blood (setting [3]) and 0.13 µM with naïve human CD8 T cells.
As to `C[C@H]1CN(c2c(C#N)c(=O)n(C)c3ccc(C#N)nc23)CCN1C(c1ccc(F)cc1)c1ccc(F)cc1` [Example 38, (S)-8-(4-(bis(4-fluorophenyl)methyl)-3-methylpiperazin-1-yl)-5-methyl-6-oxo-5,6-dihydro-1,5-naphthyridine-2,7-dicarbonitrile], the IC50 at human DGKζ was 1.8 µM; in assay [1] (Mus musculus, MC-38), 0.078 µM; on human DGKα, 2.2 µM. Moreover, the EC50 in the assay with Human venous whole blood (setting [2]) stood at 3.2 µM; with naïve human CD8 T cells (Homo sapiens, T-cell, 20 h) it was 0.067 µM.
As for `Cn1c(=O)cc(N2CCN(C(c3ccc(F)cc3)c3ccc(F)cc3)C(C(=O)OC3CC3)C2)c2nc(C#N)ccc21` (single isomer, unassigned) [Example 106, cyclopropyl 1-(bis(4-fluorophenyl)methyl)-4-(6-cyano-1-methyl-2-oxo-1,2-dihydro-1,5-naphthyridin-4-yl)piperazine-2-carboxylate], the figures for the IC50 (on human DGKζ; in assay [1]; on human DGKα) were 13 µM, 2.9 µM and 240 µM, respectively. Further, the EC50 in the assay with Human venous whole blood (setting [2]) was 8.5 µM; in the assay on naïve human CD8 T cells, 0.61 µM.
For the compound `CC(C)C(C)(O)C1CN(c2cc(=O)n(C)c3ccc(C#N)nc23)CCN1C(c1ccc(F)cc1)c1ccc(F)cc1` (single isomer, unassigned) [Example 88, 8-(4-(bis(4-fluorophenyl)methyl)-3-(2-hydroxy-3-methylbutan-2-yl)piperazin-1-yl)-5-methyl-6-oxo-5,6-dihydro-1,5-naphthyridine-2-carbonitrile], the values for the half-maximal inhibitory concentration (IC50) (at human DGKζ; in assay [1]; at human DGKα) were 240 µM, 0.99 µM and 140 µM, respectively. Further, the EC50 came to 10 µM with Human venous whole blood (setting [2]) and 2 µM in the assay with naïve human CD8 T cells (Homo sapiens, T-cell, 20 h).
With `C[C@@H]1CN(C(c2ccc(F)cc2)c2ccc(F)cc2)CCN1c1cc(=O)n(C)c2ccc(C#N)nc12` [Example 135, (R)-8-(4-(bis(4-fluorophenyl)methyl)-2-methylpiperazin-1-yl)-5-methyl-6-oxo-5,6-dihydro-1,5-naphthyridine-2-carbonitrile], the 50% inhibitory concentration (IC50) at human DGKζ stood at 10 µM; in assay [1] (Mus musculus, MC-38), 3.6 µM; on human DGKα, 110 µM. For the same compound, the EC50 with Human venous whole blood (setting [2]) amounted to 61 µM; in the assay with naïve human CD8 T cells (Homo sapiens, T-cell, 20 h), 10 µM.
`C[C@@H]1CN(C(c2ccc(F)cc2)c2ccc(F)cc2)[C@H](C)CN1c1c(Cl)c(=O)n(C)c2ccc(C#N)nc12` [Example 132, 8-((2R,5R)-4-(bis(4-fluorophenyl)methyl)-2,5-dimethylpiperazin-1-yl)-7-chloro-5-methyl-6-oxo-5,6-dihydro-1,5-naphthyridine-2-carbonitrile]: the half-inhibitory concentration (IC50) on human DGKζ was 2.7 µM; in assay [1] (Mus musculus, MC-38), 7.1 µM; on human DGKα, 51 µM. Also, the concentration giving a half-maximal response (EC50) in the assay on Human venous whole blood (setting [2]) was found to be 8.3 µM; in the assay on naïve human CD8 T cells (Homo sapiens, T-cell, 20 h) it was 2.1 µM.
In the case of `Cc1ccc(C(c2ccc(Cl)cc2)N2C[C@H](C)N(c3cc(=O)n(C)c4ccc(C#N)nc34)C[C@H]2C)cc1` (single isomer, unassigned) [Example 250], the half-inhibitory concentration (IC50) at human DGKζ is 0.63 µM; in assay [1], 0.19 µM; at human DGKα it was 0.6 µM. For the same compound, the concentration for a half-maximal effect (EC50) with Human venous whole blood (setting [3]) came out at 0.71 µM; with naïve human CD8 T cells, 0.12 µM.
As for `Cn1c(=O)cc(N2CCN(C(c3ccc(F)cc3)c3ccc(F)cc3)C(C#N)C2)c2nc(C#N)ccc21` (single isomer, unassigned) [Example 44, 8-(4-(bis(4-fluorophenyl)methyl)-3-cyanopiperazin-1-yl)-5-methyl-6-oxo-5,6-dihydro-1,5-naphthyridine-2-carbonitrile], the concentration for half-maximal inhibition (IC50) on human DGKζ was 5.5 µM; in assay [1] (Mus musculus, MC-38), 0.59 µM; on human DGKα, 2.9 µM. Besides, the EC50 was 3.9 µM in the assay on Human venous whole blood (setting [2]) and 0.46 µM in the assay on naïve human CD8 T cells (Homo sapiens, T-cell, 20 h).
Take `CC[C@@H]1CN(c2c(Cl)c(=O)n(C)c3ccc(C#N)nc23)CCN1C(c1ccc(Cl)cc1)c1ccc(Cl)cc1` [Example 177, (R)-8-(4-(bis(4-chlorophenyl)methyl)-3-ethylpiperazin-1-yl)-7-chloro-5-methyl-6-oxo-5,6-dihydro-1,5-naphthyridine-2-carbonitrile]: the IC50 on human DGKζ came out at 2.7 µM; in assay [1] (Mus musculus, MC-38), 0.87 µM; on human DGKα it was 5.5 µM. Further, the 50% effective concentration (EC50) with Human venous whole blood (setting [2]) came to 5 µM; in the assay with naïve human CD8 T cells (Homo sapiens, T-cell, 20 h) it was 0.13 µM.
As for `CC(c1ccc(F)cc1)N1C[C@H](C)N(c2cc(=O)n(C)c3ccc(C#N)nc23)C[C@H]1C` (single isomer, unassigned) [Example 308], the IC50 at human DGKζ worked out at 0.16 µM; in assay [1] (Mus musculus, MC-38), 0.081 µM; on human DGKα, 0.025 µM. For the same compound, the concentration for a half-maximal effect (EC50) with Human venous whole blood (setting [2]) was 0.52 µM; with naïve human CD8 T cells it was 0.29 µM.
As for `COC(=O)C1CN(c2cc(=O)n(C)c3ccc(C#N)nc23)CCN1C(c1ccc(Cl)cc1)c1ccc(Cl)cc1` (single isomer, unassigned) [Example 97, methyl 1-(bis(4-chlorophenyl)methyl)-4-(6-cyano-1-methyl-2-oxo-1,2-dihydro-1,5-naphthyridin-4-yl)piperazine-2-carboxylate], the half-maximal inhibitory concentration (IC50) on human DGKζ amounted to 1.7 µM; in assay [1] (Mus musculus, MC-38), 0.096 µM; on human DGKα, 14 µM. The EC50 with Human venous whole blood (setting [3]) is 1.7 µM; in the assay with naïve human CD8 T cells (Homo sapiens, T-cell, 20 h), 0.057 µM.
On to `Cn1c(=O)cc(N2CCN(C(c3ccc(F)cc3)c3ccc(F)cc3)C(C(C)(C)O)C2)c2nc(C#N)ccc21` (single isomer, unassigned) [Example 78, 8-(4-(bis(4-fluorophenyl)methyl)-3-(2-hydroxypropan-2-yl)piperazin-1-yl)-5-methyl-6-oxo-5,6-dihydro-1,5-naphthyridine-2-carbonitrile], for which the results for the IC50 (on human DGKζ; in assay [1]; at human DGKα) were 1.9 µM, 2 µM and 18 µM, respectively. Besides, the EC50 came to 8.4 µM in the assay on Human venous whole blood (setting [2]) and 0.21 µM in the assay on naïve human CD8 T cells.
In the case of `CC(C)OC(=O)C1CN(c2c(C#N)c(=O)n(C)c3ccc(C#N)nc23)CCN1C(c1ccc(F)cc1)c1ccc(F)cc1` (single isomer, unassigned) [Example 65, Isopropyl 1-(bis(4-fluorophenyl)methyl)-4-(3,6-dicyano-1-methyl-2-oxo-1,2-dihydro-1,5-naphthyridin-4-yl)piperazine-2-carboxylate], the concentration for half-maximal inhibition (IC50) in assay [1] was 8.4 µM; on human DGKα, 240 µM. In addition, the EC50 in the assay on Human venous whole blood (setting [2]) is 16 µM; in the assay on naïve human CD8 T cells, 1.7 µM.
Regarding `COC(=O)C1CN(c2c(C#N)c(=O)n(C)c3ccc(C#N)nc23)CCN1C(c1ccc(F)cc1)c1ccc(F)cc1` (single isomer, unassigned) [Example 51, methyl 1-(bis(4-fluorophenyl)methyl)-4-(3,6-dicyano-1-methyl-2-oxo-1,2-dihydro-1,5-naphthyridin-4-yl)piperazine-2-carboxylate], the 50% inhibitory concentration (IC50) is 2.1 µM on human DGKζ and 1.9 µM in assay [1]. In addition, the EC50 was 1.6 µM in the assay on Human venous whole blood (setting [3]) and 0.51 µM with naïve human CD8 T cells.
For the compound `C[C@@H]1CN(c2c(Cl)c(=O)n(C)c3ccc(C#N)nc23)CCN1C(c1ccc(F)cc1)c1ccc(F)cc1` [Example 29, (R)-8-(4-(bis(4-fluorophenyl)methyl)-3-methylpiperazin-1-yl)-7-chloro-5-methyl-6-oxo-5,6-dihydro-1,5-naphthyridine-2-carbonitrile], the half-inhibitory concentration (IC50) in assay [1] (Mus musculus, MC-38) was determined as 0.037 µM. The half-maximal effective concentration (EC50) was 1.3 µM in the assay with Human venous whole blood (setting [4]) and 0.018 µM with naïve human CD8 T cells (Homo sapiens, T-cell, 20 h).
For `C[C@H]1CN(C(c2ccc(F)cc2)c2ccc(F)cc2)[C@@H](C)CN1c1cc(=O)n(C)c2ccc(C#N)nc12` [Example 133, 8-((2S,5S)-4-(bis(4-fluorophenyl)methyl)-2,5-dimethylpiperazin-1-yl)-5-methyl-6-oxo-5,6-dihydro-1,5-naphthyridine-2-carbonitrile] the same measures were 1.1 µM, 5.8 µM and 0.84 µM.
